This note sets out measurements from patent US12427187B2, “Glucose-responsive insulin conjugates” (priority 2019, dated 2025).

SMILES strings stand for the structures. Read-outs that look alike come from different tables or passages of the source.

The target of one assay is human IR(B) (Homo sapiens, UniProt P06213). The assay is described as follows: Insulin receptor phosphorylation assay (MSD pIR). The format is cell-based. Conditions: CHO cells expressing human IR(B), IP = inflection point, read-out: IR Activation IP.
human IR(B), sequence (P06213 28-758 limits assumed): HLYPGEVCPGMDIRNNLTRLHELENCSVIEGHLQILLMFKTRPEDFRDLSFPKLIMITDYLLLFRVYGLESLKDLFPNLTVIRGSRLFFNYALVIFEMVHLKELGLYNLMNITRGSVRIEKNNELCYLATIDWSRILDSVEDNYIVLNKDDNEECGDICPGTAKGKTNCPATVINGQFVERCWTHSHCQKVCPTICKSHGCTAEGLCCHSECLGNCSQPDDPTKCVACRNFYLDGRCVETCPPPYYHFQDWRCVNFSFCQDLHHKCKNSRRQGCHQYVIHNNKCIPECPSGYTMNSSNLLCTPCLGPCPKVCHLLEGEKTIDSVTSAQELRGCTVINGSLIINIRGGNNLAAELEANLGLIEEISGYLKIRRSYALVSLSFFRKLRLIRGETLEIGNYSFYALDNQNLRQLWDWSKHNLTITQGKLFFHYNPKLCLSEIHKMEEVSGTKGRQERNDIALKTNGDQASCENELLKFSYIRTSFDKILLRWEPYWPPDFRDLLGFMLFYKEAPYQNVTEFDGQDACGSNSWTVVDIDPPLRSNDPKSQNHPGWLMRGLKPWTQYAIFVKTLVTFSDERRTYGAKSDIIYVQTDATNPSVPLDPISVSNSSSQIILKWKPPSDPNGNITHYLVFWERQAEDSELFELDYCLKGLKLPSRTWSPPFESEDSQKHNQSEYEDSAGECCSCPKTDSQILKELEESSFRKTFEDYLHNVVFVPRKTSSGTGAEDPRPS
human IR(B), sequence (P06213 763-1382 partner limits assumed): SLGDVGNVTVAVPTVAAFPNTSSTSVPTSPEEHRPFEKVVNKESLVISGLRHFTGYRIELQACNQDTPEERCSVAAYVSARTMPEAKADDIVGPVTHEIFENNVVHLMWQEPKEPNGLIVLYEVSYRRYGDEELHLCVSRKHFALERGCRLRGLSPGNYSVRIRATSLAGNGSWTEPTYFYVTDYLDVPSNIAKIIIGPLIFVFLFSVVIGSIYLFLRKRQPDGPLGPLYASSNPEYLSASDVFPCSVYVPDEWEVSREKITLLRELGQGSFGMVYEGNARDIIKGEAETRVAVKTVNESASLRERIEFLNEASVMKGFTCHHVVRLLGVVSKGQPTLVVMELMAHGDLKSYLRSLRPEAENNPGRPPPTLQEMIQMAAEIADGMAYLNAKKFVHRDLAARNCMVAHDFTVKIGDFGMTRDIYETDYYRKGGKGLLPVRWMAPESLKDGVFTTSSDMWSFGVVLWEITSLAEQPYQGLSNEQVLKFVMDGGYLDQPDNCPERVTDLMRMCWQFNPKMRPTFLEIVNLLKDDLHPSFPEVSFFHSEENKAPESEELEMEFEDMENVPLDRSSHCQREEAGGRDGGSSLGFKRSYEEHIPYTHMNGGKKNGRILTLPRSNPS
In assay [1] the target is T1, Human macrophage mannose receptor 1 (MRC1) (Homo sapiens, UniProt P22897).
T1 sequence (P22897 19-1456): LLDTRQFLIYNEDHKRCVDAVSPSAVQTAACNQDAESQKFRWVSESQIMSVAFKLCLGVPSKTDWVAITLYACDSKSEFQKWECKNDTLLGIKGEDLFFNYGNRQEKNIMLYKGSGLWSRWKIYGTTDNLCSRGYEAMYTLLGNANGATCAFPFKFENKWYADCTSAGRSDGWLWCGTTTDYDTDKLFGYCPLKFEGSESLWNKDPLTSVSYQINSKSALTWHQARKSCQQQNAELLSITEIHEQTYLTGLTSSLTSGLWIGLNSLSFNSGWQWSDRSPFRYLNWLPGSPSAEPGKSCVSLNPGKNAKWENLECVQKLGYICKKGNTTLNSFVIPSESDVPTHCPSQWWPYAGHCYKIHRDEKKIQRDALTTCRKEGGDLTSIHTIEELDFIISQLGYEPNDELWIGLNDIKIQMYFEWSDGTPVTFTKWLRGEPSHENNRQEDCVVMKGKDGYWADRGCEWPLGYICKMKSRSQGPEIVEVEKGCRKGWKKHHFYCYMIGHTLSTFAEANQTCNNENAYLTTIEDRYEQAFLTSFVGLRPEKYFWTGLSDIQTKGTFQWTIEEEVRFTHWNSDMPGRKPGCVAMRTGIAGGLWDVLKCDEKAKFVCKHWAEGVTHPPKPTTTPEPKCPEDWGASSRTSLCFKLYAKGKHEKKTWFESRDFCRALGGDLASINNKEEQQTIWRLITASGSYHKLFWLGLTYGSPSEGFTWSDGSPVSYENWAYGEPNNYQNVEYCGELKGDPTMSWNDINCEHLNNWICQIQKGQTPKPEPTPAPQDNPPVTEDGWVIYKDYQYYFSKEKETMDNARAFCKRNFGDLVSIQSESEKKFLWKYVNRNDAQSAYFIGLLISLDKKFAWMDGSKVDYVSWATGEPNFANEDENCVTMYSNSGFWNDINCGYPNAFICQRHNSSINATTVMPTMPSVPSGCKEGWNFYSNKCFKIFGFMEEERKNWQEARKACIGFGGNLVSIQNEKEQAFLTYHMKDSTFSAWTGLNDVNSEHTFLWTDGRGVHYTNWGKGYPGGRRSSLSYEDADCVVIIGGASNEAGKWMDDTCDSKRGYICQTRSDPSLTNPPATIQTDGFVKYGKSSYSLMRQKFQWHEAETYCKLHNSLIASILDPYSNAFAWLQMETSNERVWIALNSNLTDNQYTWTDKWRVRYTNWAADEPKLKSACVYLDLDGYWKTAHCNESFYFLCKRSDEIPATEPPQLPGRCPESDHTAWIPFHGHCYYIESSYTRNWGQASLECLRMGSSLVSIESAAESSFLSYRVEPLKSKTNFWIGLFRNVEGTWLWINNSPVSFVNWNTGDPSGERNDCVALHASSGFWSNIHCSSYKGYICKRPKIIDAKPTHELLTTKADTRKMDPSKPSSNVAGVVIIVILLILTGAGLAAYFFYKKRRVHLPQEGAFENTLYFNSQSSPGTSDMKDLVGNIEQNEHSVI
In words: MRC1 competition binding assay with Eu-mannosylated-BSA. Conditions: IP = inflection point, read-out: MRC1 Binding IP.
Description: The competition binding assay for Human macrophage mannose receptor 1 (MRC1) utilized a ligand, mannosylated-BSA labeled with the DELFIA Eu-N1-ITC reagent, as reported in the literature. Assay was performed either in a 96-well plate with 100 μL well volume (Method E) or in a 384-well plate with 25 μL well volume (Method F). […] The antibody was incubated in the plate for 1 hr at rt with shaking. The plate was washed with wash buffer 3-5 times followed by addition of MRC1 (2 ng/μl final concentration) in PBS containing 1% stabilizer BSA. The plate was incubated at rt with gentle shaking for 1 hr. The plate was washed three times with wash buffer. The IOC molecules in 12.5 μL (or 50 μL depending on plate format) buffer at appropriate concentrations were added followed by 12.5 μL (or 50 μL) Eu-mannosylated-BSA (0.1 nm final concentration) in 50 mM Tris, pH 7.5 containing 100 mM NaCl, 5 mM CaCl2, 1 mM MgCl2 and 0.2% stabilizer BSA. The plate was incubated for 2 hrs at rt with shaking followed by washing three times with wash buffer.

[2] abbreviates: Method B: IR phosphorylation assay, 384-well with automated liquid dispense.

Description for human IR(B): CHO cells stably expressing human IR(B) were in grown in F12 cell media containing 10% FBS and antibiotics (G418, Penicillin/Strepavidin) for at least 8 hr, and then serum starved by switching to F12 media containing 0.5% BSA (insulin-free) in place of FBS for overnight growth. Cells were harvested and frozen in aliquots for use in the MSD pIR assay. Briefly, the frozen cells were plated in either 96-well (40,000 cells/well, Methods A) or 384-well (10,000 cells/well, Method B) clear tissue culture plates and allowed to recover. IOC molecules at the appropriate concentrations were added and the cells incubated for 8 min at 37° C. The media was aspirated and chilled MSD cell lysis buffer was added as per MSD kit instructions. The cells were lysed on ice for 40 min and the lysate then mixed for 10 min at rt. The lysate was transferred to the MSD kit pIR detection plates. The remainder of the assay was carried out following the MSD kit recommended protocol.
The in vitro biological activities towards insulin receptor (IR) were measured by either ligand competition assays or functional phosphorylation assays, as described above, labeled as following: Method A: IR phosphorylation assay based on 96-well; Method B: IR phosphorylation assay based on 384-well with automated liquid dispense; Method C: cell-based IR binding assay; Method D: SPA IR binding assay method E; Method E: MRC1 assay was performed in a 96-well plate; Method F: MRC1 assay was performed in a 384-well plate.

As for `CC(=O)[C@H](CCCCN)NC(=O)CCCCCNC(=O)[C@H](CCCCNC(=O)CCCCCNC(=O)CN(CC(=O)N(CCOC1O[C@H](CO)[C@@H](O)[C@H](O)[C@@H]1O)CCOC1O[C@H](CO)[C@@H](O)[C@H](O)[C@@H]1O)CC(=O)N(CCOC1O[C@H](CO)[C@@H](O)[C@H](O)[C@@H]1O)CCOC1O[C@H](CO)[C@@H](O)[C@H](O)[C@@H]1O)NC(=O)[C@H](CCCCNC(=O)CCCCCNC(=O)CN(CC(=O)N(CCOC1O[C@H](CO)[C@@H](O)[C@H](O)[C@@H]1O)CCOC1O[C@H](CO)[C@@H](O)[C@H](O)[C@@H]1O)CC(=O)N(CCOC1O[C@H](CO)[C@@H](O)[C@H](O)[C@@H]1O)CCOC1O[C@H](CO)[C@@H](O)[C@H](O)[C@@H]1O)NC(=O)CCCCCNC(=O)CN(CC(=O)N(CCOC1O[C@H](CO)[C@@H](O)[C@H](O)[C@@H]1O)CCOC1O[C@H](CO)[C@@H](O)[C@H](O)[C@@H]1O)CC(=O)N(CCOC1O[C@H](CO)[C@@H](O)[C@H](O)[C@@H]1O)CCOC1O[C@H](CO)[C@@H](O)[C@H](O)[C@@H]1O` (stereo partly shown) [IOC-61], the EC50 on human IR(B) (setting [2]) turned out to be 1.12 nM. Moreover, the IC50 in assay [1] (Method E: 96-well plate) stood at 1.89 nM.

For the molecule `CC(=O)[C@H](CCCCN)NC(=O)[C@H](CCCCNC(=O)CCCCC(=O)N(CCOC1O[C@H](CO)[C@@H](O)[C@H](O)[C@@H]1O)CCOC1O[C@H](CO)[C@@H](O)[C@H](O)[C@@H]1O)NC(=O)[C@H](CCCNC(=O)CCCCC(=O)N(CCOC1O[C@H](CO)[C@@H](O)[C@H](O)[C@@H]1O)CCOC1O[C@H](CO)[C@@H](O)[C@H](O)[C@@H]1O)NC(=O)CCCCC(=O)N(CCOC1O[C@H](CO)[C@@H](O)[C@H](O)[C@@H]1O)CCOC1O[C@H](CO)[C@@H](O)[C@H](O)[C@@H]1O` (stereo partly shown) [IOC-44], at human IR(B) (Method A: IR phosphorylation assay, 96-well), the EC50 is 8.4 nM. Also, the IC50 in assay [1] (Method E: 96-well plate) worked out at 31.3 nM. Consider `CC(=O)[C@H](CCCCN)NC(=O)CCCCCNC(=O)[C@H](CCCCNC(=O)CCCCCNC(=O)CN(CC(=O)NCCO[C@@H]1O[C@@H](C)[C@@H](O)[C@@H](O)[C@@H]1O)CC(=O)N(CCOC1C[C@H](CO)[C@@H](O)[C@H](O)[C@@H]1O)CCOC1O[C@H](CO)[C@@H](O)[C@H](O)[C@@H]1O)NC(=O)[C@H](CCCCNC(=O)CCCCCNC(=O)CN(CC(=O)NCCO[C@@H]1O[C@@H](C)[C@@H](O)[C@@H](O)[C@@H]1O)CC(=O)N(CCOC1C[C@H](CO)[C@@H](O)[C@H](O)[C@@H]1O)CCOC1O[C@H](CO)[C@@H](O)[C@H](O)[C@@H]1O)NC(=O)CCCCCNC(=O)CN(CC(=O)NCCO[C@@H]1O[C@@H](C)[C@@H](O)[C@@H](O)[C@@H]1O)CC(=O)N(CCOC1O[C@H](CO)[C@@H](O)[C@H](O)[C@@H]1O)CCOC1O[C@H](CO)[C@@H](O)[C@H](O)[C@@H]1O` (stereo partly shown) [IOC-59], for which the EC50 at human IR(B) (setting [2]) stood at 1.98 nM. The IC50 in assay [1] (Method F: 384-well plate) came to 2.58 nM. With `CC(=O)[C@H](CCCCN)NC(=O)CCCCC(=O)NCC(=O)N[C@@H](CCC(=O)N[C@@H](CCC(=O)NCCCCCC(=O)N(CC(=O)NCCO[C@H]1O[C@H](CO)[C@@H](O)[C@H](O)[C@@H]1O)CC(=O)NCCO[C@@H]1O[C@@H](C)[C@@H](O)[C@@H](O)[C@@H]1O)C(=O)NCCCCCC(=O)N(CC(=O)NCCO[C@H]1O[C@H](CO)[C@@H](O)[C@H](O)[C@@H]1O)CC(=O)NCCO[C@@H]1O[C@@H](C)[C@@H](O)[C@@H](O)[C@@H]1O)C(=O)NCCCCCC(=O)N(CC(=O)NCCO[C@H]1O[C@H](CO)[C@@H](O)[C@H](O)[C@@H]1O)CC(=O)NCCO[C@@H]1O[C@@H](C)[C@@H](O)[C@@H](O)[C@@H]1O` [IOC-50], at human IR(B) (setting [2]), the EC50 turned out to be 0.84 nM. For the same molecule, the IC50 in assay [1] (Method F: 384-well plate) worked out at 13.1 nM. As to `CC(=O)[C@H](CCCCN)NC(=O)CCCCCNC(=O)[C@H](CCCCNC(=O)CCCCC(=O)NCCCC[C@@H](C(=O)NCCO[C@@H]1O[C@@H](C)[C@@H](O)[C@@H](O)[C@@H]1O)N(CC(=O)NCCO[C@@H]1O[C@@H](C)[C@@H](O)[C@@H](O)[C@@H]1O)CC(=O)NCCO[C@@H]1O[C@@H](C)[C@@H](O)[C@@H](O)[C@@H]1O)NC(=O)[C@H](CCCCNC(=O)CCCCC(=O)NCCCC[C@@H](C(=O)NCCO[C@@H]1O[C@@H](C)[C@@H](O)[C@@H](O)[C@@H]1O)N(CC(=O)NCCO[C@@H]1O[C@@H](C)[C@@H](O)[C@@H](O)[C@@H]1O)CC(=O)NCCO[C@@H]1O[C@@H](C)[C@@H](O)[C@@H](O)[C@@H]1O)NC(=O)CCCCC(=O)NCCCC[C@@H](C(=O)NCCO[C@@H]1O[C@@H](C)[C@@H](O)[C@@H](O)[C@@H]1O)N(CC(=O)NCCO[C@@H]1O[C@@H](C)[C@@H](O)[C@@H](O)[C@@H]1O)CC(=O)NCCO[C@@H]1O[C@@H](C)[C@@H](O)[C@@H](O)[C@@H]1O` [IOC-58], the EC50 on human IR(B) (setting [2]) amounted to 1.17 nM. For the same molecule, the IC50 in assay [1] (Method F: 384-well plate) was 0.87 nM. Consider `CC(=O)[C@H](CCCCN)NC(=O)CCCCC(=O)N[C@@H](CCC(=O)N[C@@H](CCC(=O)N[C@@H](CCC(=O)NCCCCCC(=O)NCCO[C@H]1O[C@H](CO[C@H]2O[C@H](CO)[C@@H](O)[C@H](O)[C@@H]2O)[C@@H](O)[C@H](O[C@H]2O[C@H](CO)[C@@H](O)[C@H](O)[C@@H]2O)[C@@H]1O)C(=O)NCCCCCC(=O)NCCO[C@H]1O[C@H](CO[C@H]2O[C@H](CO)[C@@H](O)[C@H](O)[C@@H]2O)[C@@H](O)[C@H](O[C@H]2O[C@H](CO)[C@@H](O)[C@H](O)[C@@H]2O)[C@@H]1O)C(=O)NCCCCCC(=O)NCCO[C@H]1O[C@H](CO[C@H]2O[C@H](CO)[C@@H](O)[C@H](O)[C@@H]2O)[C@@H](O)[C@H](O[C@H]2O[C@H](CO)[C@@H](O)[C@H](O)[C@@H]2O)[C@@H]1O)C(=O)NCCCCCC(=O)NCCO[C@H]1O[C@H](CO[C@H]2O[C@H](CO)[C@@H](O)[C@H](O)[C@@H]2O)[C@@H](O)[C@H](O[C@H]2O[C@H](CO)[C@@H](O)[C@H](O)[C@@H]2O)[C@@H]1O` [IOC-24], for which, in assay [1] (Method E: 96-well plate), the IC50 was 3.32 nM.

On to `CC(=O)[C@H](CCCCN)NC(=O)CCCCCNC(=O)[C@H](CCCCNC(=O)CCCCCNC(=O)CCCCCNC(=O)CN(CC(=O)NCCO[C@H]1O[C@H](CO)[C@@H](O)[C@H](O)[C@@H]1O)CC(=O)NCCO[C@@H]1O[C@@H](C)[C@@H](O)[C@@H](O)[C@@H]1O)NC(=O)[C@H](CCCCNC(=O)CCCCCNC(=O)CN(CC(=O)NCCO[C@H]1O[C@H](CO)[C@@H](O)[C@H](O)[C@@H]1O)CC(=O)NCCO[C@@H]1O[C@@H](C)[C@@H](O)[C@@H](O)[C@@H]1O)NC(=O)CCCCCNC(=O)CN(CC(=O)NCCO[C@H]1O[C@H](CO)[C@@H](O)[C@H](O)[C@@H]1O)CC(=O)NCCO[C@@H]1O[C@@H](C)[C@@H](O)[C@@H](O)[C@@H]1O` [IOC-53], for which the IC50 in assay [1] (Method F: 384-well plate) is 9.22 nM.

As for `CC(=O)[C@H](CCCCN)NC(=O)CCCCC(=O)N[C@@H](CCC(=O)NCCCC[C@@H](C(=O)NCCO[C@@H]1O[C@H](CO)[C@@H](O)[C@H](O)[C@H]1O)N(CC(=O)NCCO[C@@H]1O[C@H](CO)[C@@H](O)[C@H](O)[C@H]1O)CC(=O)NCCO[C@@H]1O[C@H](CO)[C@@H](O)[C@H](O)[C@H]1O)C(=O)N[C@@H](CCC(=O)NCCCC[C@@H](C(=O)NCCO[C@@H]1O[C@H](CO)[C@@H](O)[C@H](O)[C@H]1O)N(CC(=O)NCCO[C@@H]1O[C@H](CO)[C@@H](O)[C@H](O)[C@H]1O)CC(=O)NCCO[C@@H]1O[C@H](CO)[C@@H](O)[C@H](O)[C@H]1O)C(=O)N[C@@H](CC(C)C)C(=O)NCCCC[C@@H](C(=O)NCCO[C@@H]1O[C@H](CO)[C@@H](O)[C@H](O)[C@H]1O)N(CC(=O)NCCO[C@@H]1O[C@H](CO)[C@@H](O)[C@H](O)[C@H]1O)CC(=O)NCCO[C@@H]1O[C@H](CO)[C@@H](O)[C@H](O)[C@H]1O` [IOC-57], the IC50 in assay [1] (Method E: 96-well plate) amounted to 1560 nM.
